Several values for one entry are separate records, joined by “and”; a condition that tells them apart may be missing. Equal values may be shown once. Read-outs that look alike come from different tables or passages of the source.
Assays:
[1] = tested on: amyloid precursor protein (APP); conditions: mouse, in vivo
Excerpt: (§1) The animal protocol was approved by the Standing Committee on Animals at Massachusetts General Hospital (Boston, Mass.). Naive mice (C57BL/6J mice [The JacksonLaboratory, Bar Harbor, Me.]) and Alzheimer's disease (AD) transgenic mice (B6.Cg-Tg[APPswe, PSEN1dE9]85 Dbo/J, [The Jackson Laboratory]) were distinguished by genotyping. All animals (3-12 mice per experiment) were 6 days old at the time of anesthesia and were randomized by weight and gender into experimental groups that received either 3 or 2.1% sevoflurane plus 60% oxygen for either 6 or 2 h, and control groups received 60% oxygen for 6 or 2 h at identical flow rates in identical anesthetizing chambers. […] Anesthetic and oxygen concentrations were measured continuously (Datex, Tewksbury, Mass.), and the temperature of the anesthetizing chamber was controlled to maintain the rectal temperature of the mice at 37°±0.5° C. In the interaction studies, the inositol trisphosphate receptor (IP3R) antagonist 2-aminoethoxydiphenyl borate (2-APB) (5 and 10 mg/kg) was administered to the mice via intraperitoneal injection 10 min before the anesthetic was administered. 2-APB was first dissolved in dimethyl sulfoxide to 20 μg/μl and then diluted with saline to 0.25 μg/μl (1:80 dilution) and to 0.5 μg/μl (1:40 dilution).
(§2) Immediately after sevoflurane anesthesia, the mouse was decapitated, and the brain cortex was harvested. The brain tissues were homogenized in an immunoprecipitation buffer (10 mM Tris-HCl, pH 7.4, 150 mM NaCl, 2 mM ethylenediaminetetraacetic acid, and 0.5% Nonidet P-40) plus protease inhibitors ([1 μg/ml aprotinin, 1 μg/ml leupeptin, and 1 μg/ml pepstatin A]; [Roche, Indianapolis, Ind.]). The lysates were collected, centrifuged at 13,000 rpm for 15 min, and quantified for total proteins by using the bicinchoninic acid protein assay kit (Pierce, Iselin, N.J.).
(§3) The harvested brain tissues were subjected to Western blots as described by Xie et al. (16). Briefly, 60 μg of each lysate was separated on sodium dodecyl sulfate polyacrylamide gel electrophoresis gels and transferred to polyvinylidene difluoride blots (Bio-Rad, Hercules, Calif.) using a semidry electrotransfer system (Amersham Biosciences, San Francisco, Calif.). The blot was incubated overnight at 4° C. with primary antibodies, followed by washes and incubation with appropriate secondary antibodies, and visualized with a chemoluminescence system. A caspase-3 antibody (1:1,000 dilution; Cell Signaling Technology, Danvers, Mass.) was used to recognize the caspase-3 fragment (17-20 kDa) resulting from cleavage at aspartate position 175 and fulllength (FL) caspase-3 (35-40 kDa). TNF-α levels were recognized by antibody ab6671 (26 kDa; 1:1,000; Abcam, Cambridge, Mass.). The antibody to nontargeted protein β-actin was used to control for loading differences in total protein amounts. The figures showing blots with only the caspase-3 fragment are the same Western blots with extended exposure time during the development of the film. The signal of the Western blot band was detected using Molecular Imager VersaDoc MP 5000 System (Bio-Rad). The intensity of signals was analyzed using a Bio-Rad image program (Quantity One) and a National Institutes of Health Image Version 1.37 (National Institutes of Health, Bethesda, Md.). Western blots were quantified using two steps. First, levels of β-actin was used to normalize (e.g., determining the ratio of FL caspase-3 amount to β-actin amount) the levels of proteins to control for loading differences in total protein amounts.

caspase-3 = conditions: for caspase-3 activation, fold of control (1-fold): 3% sevoflurane for 6 h, FIG. 4B; for sevoflurane-induced caspase-3 activation, percentage of control (100%): sevoflurane alone 356%
Excerpt: as §1, §2, §3

[2] = tested on: TUNEL-positive cells (apoptosis) in the brain tissues; assay: TUNEL staining of brain sections of neonatal mice; type: in vivo; conditions: 3% sevoflurane plus 60% oxygen for 6 h, FIG. 5B
Description: Terminal Deoxynucleotidyl Transferase dUTP Nick End Labeling Staining Assay. […] The mouse brain tissues were removed and exposed to immersion fixation for 24 h at 4° C. in 4% paraformaldehyde, and then 5-μm paraffin-embedded sections were made from the brain tissues. TMRred kit (Roche, Palo Alto, Calif.) was used for terminal deoxynucleotidyl transferase dUTP nick end labeling (TUNEL) staining. Briefly, the brain sections were incubated in a permeabilization solution and then incubated with a TUNEL reaction mixture. Finally, the sections were incubated with 10 μg/ml Hoechst 33342 in a humidified dark chamber. The sections from the same brain areas between control group mice and the sevoflurane-treated mice were then analyzed in a mounting medium under a fluorescence microscope. The TUNEL-positive cells and total cells in five areas of the brain section from each of the mice in the experiments were counted blind-fold under a 20× objective microscope lens. For the double immunocytochemistry staining to identify the cell type of the TUNEL-positive cells, the mouse brain tissues were quickly removed after sevoflurane anesthesia, put into a container with dry ice and ethanol, and then kept in a −80° C. freezer. Five-micrometer frozen sections were cut using a cryostat. […] Finally, the sections were mounted and immediately viewed using a fluorescence microscope.
(§4) Data were expressed as mean±SD.

[3] = Mortality of neonatal mice after sevoflurane anesthesia; type: in vivo; conditions: 6-day-old mice
Description: Naive mice (C57BL/6J mice [The JacksonLaboratory, Bar Harbor, Me.]) and Alzheimer's disease (AD) transgenic mice (B6.Cg-Tg[APPswe, PSEN1dE9]85 Dbo/J, [The Jackson Laboratory]) were distinguished by genotyping. All animals (3-12 mice per experiment) were 6 days old at the time of anesthesia and were randomized by weight and gender into experimental groups that received either 3 or 2.1% sevoflurane plus 60% oxygen for either 6 or 2 h, and control groups received 60% oxygen for 6 or 2 h at identical flow rates in identical anesthetizing chambers. […] The high concentration of sevoflurane anesthesia was used to illustrate the difference of sevoflurane-induced neurotoxicity between neonatal naïve and AD transgenic mice. […] Anesthetic and oxygen concentrations were measured continuously (Datex, Tewksbury, Mass.), and the temperature of the anesthetizing chamber was controlled to maintain the rectal temperature of the mice at 37°±0.5° C.

Aβ = conditions: 2-APB (10 mg/kg, FIG. 7D) before 3% sevoflurane for 6 h; neonatal naïve mice; sevoflurane alone 304%; P=0.042
Excerpt: as §1, §4

[4] = tested on: apoptosis in the developing rat brain; conditions: intraventricular injection, Wei and Xie, 6 Curr. Alzheimer Res. 30 (2009); cited from earlier work
H4 naïve cells = conditions: propofol before 2% isoflurane, FIG. 11
Description: (§5) To this end, H4 human neuroglioma cells stably transfected to express human full-length wild-type APP (H4-APP cells) in cell culture media with […] Aβ40, Aβ42 or Aβ40 plus Aβ42, were treated with an clinically relevant concentration of propofol (e.g., 100 μM) for one hour, and then with 2% isoflurane (plus 21% O2 and 5% CO2) for six hours. Wild-type H4 human neuroglioma cells (H4 naïve cells) and primary neurons from naïve (C57BL/6) mice were also used in the study for comparison. To obtain primary neurons, naïve (C57BL/6) mice with gestation stage of day 15 were euthanized with CO2. The primary neurons were harvested from the embyros. The harvested neurons were cultured for 7 to 10 days prior to treatment.
(§6) Anesthesia machine was used for the delivery of 2% isoflurane to the cells or neurons plated in a six well plate in a sealed plastic box located in a 37° C. incubator and Datex infrared gas analyzer was used for the monitoring (FIGS. 9A to 9C). The cells and the cell culture media were harvested at the end of the treatment. Caspase-3 activation and Aβ oligomerization were measured with quantitative Western blotting. Chemiluminescence signal from the western blot membranes was captured using a VersaDoc Imaging System and images were analyzed using Quantity One software (BioRad Hercules, Calif.).
(§7) Apoptosis is a programmed cell death requiring cysteine proteases called caspases, and caspase-3 activation is one of the final steps of apoptosis. Thus, a caspase-3 antibody (Cell Signaling, Danvers, Mass.) was used to recognize full-length (35 kDa), and the large fragment of cleaved caspase-3 (17-20 kDa).

H4-APP cells = tested on: H4-APP cells
Description: as §5, §6, §7

[5] = tested on: primary neurons from naïve (C57BL/6) mice; conditions: propofol before 2% isoflurane, gestation day 15, FIG. 12
Description: as §5, §6, §7

[6] = tested on: Aβ40 and Aβ42 oligomerization
Description: as §5, §6
In addition to the propofol effects on caspase-3 activation, its effects on Aβ oligomerization were assessed. H4-APP cell culture media were exposed to 2% isoflurane with and without 100 μM propofol for six hours. Antibody mAb 6E10 (1:3,000, Sigma) was used to detect Aβ40 and Aβ42 oligomerization.

With `FCOC(C(F)(F)F)C(F)(F)F` [sevoflurane] the “decrease in the ratio of APP-C83 to APP-FL compared with control” value [1] was 45%, the “decrease in the ratio of APP-C99 to APP-FL compared with control” value [1] was 33% and the “caspase-3 activation, percentage of control (100%)” value (caspase-3; 2.1% sevoflurane for 6 h, neonatal AD transgenic mice, FIG. 2D, P=0.045) was 178%. For the same compound, the “caspase-3 activation, percentage of control (100%)” value (caspase-3; 2.1% sevoflurane for 6 h, neonatal naïve mice, FIG. 2B, P=0.002) was 183%, the “caspase-3 activation, percentage of control (100%)” value (caspase-3; 3% sevoflurane for 2 h, neonatal naïve mice, FIG. 3B, P=0.074 (did not increase)) was 128% and the “caspase-3 activation, fold of control (1-fold)” value (caspase-3; neonatal AD transgenic mice) was 2.45 fold and 2.13 fold. The “caspase-3 activation, fold of control (1-fold)” value (caspase-3; neonatal naïve mice, P=0.003) was 1.48 fold, the “caspase-3 activation, percentage of control (100%)” value (caspase-3; 3% sevoflurane for 6 h alone, neonatal naïve mice, 2-APB interaction study, FIG. 7B, P=0.002) was 356% and the “increase in caspase-3 cleavage (activation), ratio of cleaved caspase-3 fragment to FL-caspase-3, compared with control” value (caspase-3; 3% sevoflurane plus 60% oxygen for 6 h, 6-day-old neonatal naïve mice, FIG. 1B, P=0.009) was 242%. The “TUNEL-positive cells (apoptosis), fold of control (1-fold)” value ([2]; neonatal AD transgenic mice) was 2.13 fold and 2.45 fold, the “TUNEL-positive cells (apoptosis), fold of control (1-fold)” value ([2]; neonatal naïve mice, P=0.001) was 2.08 fold and the “death of the mice” value ([3]; 2.1% sevoflurane) was “did not cause the death of the mice”. The “mortality rate of the mice” value ([3]; 3% sevoflurane plus 60% oxygen for 6 h) was 10-15%.
For `NCCOB(c1ccccc1)c1ccccc1` [2-APB, 2-aminoethoxydiphenyl borate], the “sevoflurane-induced caspase-3 activation, percentage of control (100%)” value (caspase-3; 5 mg/kg 2-APB i.p. 10 min before 3% sevoflurane for 6 h, neonatal naïve mice, P=0.001) was 149%, the “sevoflurane-induced caspase-3 activation, percentage of control (100%)” value (caspase-3; 10 mg/kg 2-APB i.p. 10 min before 3% sevoflurane for 6 h, neonatal naïve mice, P=0.005) was 115% and the “sevoflurane-induced increase in Aβ levels, percentage of control” value (Aβ) was 157%.
In the case of `C1CCC[C@H]2CCCN3CC[C@@H](CCCCCC[C@@H]4CCCN5CC[C@@H](CC1)O[C@@H]45)O[C@@H]23` [xestospongin C], the “effect on isoflurane-induced apoptosis” value [4] is listed as “inhibits isoflurane-induced apoptosis”.
In the case of `CC(C)c1cccc(C(C)C)c1O` [propofol, 2,6-diisopropylphenol], the “effect on isoflurane-induced caspase-3 activation” value (H4 naïve cells) was “did not attenuate”, the “effect on isoflurane-induced caspase-3 activation” value (H4-APP cells; 100 μM propofol for one hour prior to 2% isoflurane for six hours, H4-APP cells, FIG. 10) was “attenuated isoflurane-induced caspase-3 activation” and the “caspase-3 activation by propofol alone” value (H4-APP cells; propofol alone, no isoflurane) was “did not induce”. For the same compound, the “effect on isoflurane-induced caspase-3 activation” value [5] was “did not attenuate”, the “effect on isoflurane-induced Aβ40 (oligomerization)” value ([6]; 100 μM propofol for one hour prior to 2% isoflurane, H4-APP cells, FIG. 14B) was “attenuated” and the “effect on isoflurane-induced Aβ42 (oligomerization)” value ([6]; 100 μM propofol for one hour prior to 2% isoflurane, H4-APP cells, FIG. 14C) was “attenuated”. The “Aβ oligomerization by propofol alone” value ([6]; propofol alone, no isoflurane) was “did not induce”.
